Data from US20210221866A1, “PROTEASE-RESISTANT LIPIDATED GLP-1 ANALOGS” (MEDIMMUNE LIMITED, priority 2015, published 2021).
Like-named read-outs stand apart in the source and are kept apart here. Blank lines part the entries; values can stand above or below the compound they belong to. Numbered stars: 1 amine (or outer) side, 2 acyl side, 3 side chain; on linkers, the order of the positions; unused ones are H or OH. Square brackets hold non-standard residues; d marks the D form. Side chains are listed from the residue outwards. Peptide text beside a SMILES is read from it. * marks the point of attachment. γGlu = O=C(O)[C@H](CCC(=O)[*:2])N[*:1]; αMeF = C[C@](N)(Cc1ccccc1)C(=O)O; αMeK = C[C@](N)(CCCCN)C(=O)O; Lauroyl = CCCCCCCCCCCC(=O)*; αMeS = C[C@](N)(CO)C(=O)O; Nle = CCCC[C@H](N)C(=O)O; AEEA = NCCOCCOCC(=O)O; Aib = CC(C)(N)C(=O)O

Experiments:
[1] = Proteolytic resistance to fasted-state simulated intestinal fluid (FASSIF/Pancreatin); type: in vitro ADME; conditions: 37° C., read-out: Percentage remaining intact peptide (AUC by RP-HPLC) upon incubation with fasted-state simulated intestinal fluid (FASSIF/P); for remaining at 5 min, […]: t = 5 m; for remaining at 10 min, […]: t = 10 m; for remaining at 0.25 h, […]: t = 15 m; for remaining at 0.5 h, […]: t = 30 m; for remaining at 1 h, […]: t = 1 h; for remaining at 2 h, […]: t = 2 h
Procedure: (§1) A fresh suspension of FASSIF/P (Fasted-State Simulated Intestinal Fluid+USP Pancreatin®) was prepared according to that described by Galia, Nicolaides, Hörter, Lobenberg, Reppas and Dressman: Pharm. Res. 15 (1998) 698-705. The resulting preparation is proteolytically equivalent to ˜375 units/mL (375 kU/L) and was used immediately without storage. Peptides for evaluation (1.0 mg, ˜250 nmoles) were initially dissolved in pre-warmed FASSIF without Pancreatin® (200 μL) to which was added pre-warmed fresh FASSIF/Pancreatin® (100 μL) to initiate potential digestion. Following momentary vortexing of the Eppendorf reaction tube the mixture was incubated at 37° C. in a thermostatic waterbath for the duration of the experiment. 25 μL aliquots of the co-incubated peptide-enzyme mixture were periodically withdrawn (t=0, 5 m, 10 m, 15 m, 30 m, 1 h, 2 h) and quenched immediately by addition to a solution of 10% TFA in 1:1 water/acetonitrile (75 μL) to arrest proteolytic activity.

[2] = test system: FASSIF/P (Fasted-State Simulated Intestinal Fluid+USP Pancreatin®); test: as above; type: in vitro ADME; conditions: t = 0; 37° C.
Procedure: as §1

[3] = biological target: T1, human glucose-dependent insulinotropic peptide receptor (GIPR) (Homo sapiens, UniProt P48546); test: cAMP assay, human GIPR cells; type: cell-based; conditions: Table 9, bis-lipidated peptides
T1 construct: expressed in transfected cells; host or cells: HEK293 cells or CHO cells
T1 sequence (P48546 22-466): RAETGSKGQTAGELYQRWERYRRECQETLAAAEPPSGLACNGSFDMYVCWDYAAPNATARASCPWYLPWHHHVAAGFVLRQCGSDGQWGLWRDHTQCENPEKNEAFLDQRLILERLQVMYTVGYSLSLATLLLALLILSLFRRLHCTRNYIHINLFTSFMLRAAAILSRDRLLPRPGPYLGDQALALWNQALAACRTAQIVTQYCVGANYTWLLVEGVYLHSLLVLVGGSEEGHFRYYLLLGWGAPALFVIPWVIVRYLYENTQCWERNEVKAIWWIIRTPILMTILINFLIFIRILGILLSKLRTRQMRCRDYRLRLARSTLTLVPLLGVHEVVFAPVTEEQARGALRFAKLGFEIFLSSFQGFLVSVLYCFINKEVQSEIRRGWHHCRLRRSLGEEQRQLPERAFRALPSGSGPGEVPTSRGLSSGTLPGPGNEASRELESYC
Outline: (§2)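 Peptide-stimulated cAMP measured by two-step HTRF after a 30 min room-temperature incubation with receptor-expressing cells (hGLP-1R, hGIPR at 1×10^5 cells/ml; hGCGR at 2×10^5 cells/ml). Duplicate dilutions; EC50 from 4-parameter logistic fit of % Delta F.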

[4] = biological target: T2, human glucagon receptor (GCGR) (Homo sapiens, UniProt P47871); test: cAMP assay, human GCGR cells; type: cell-based; conditions: Table 9, bis-lipidated peptides
T2 construct: expressed in transfected cells; host or cells: HEK293 cells or CHO cells
Outline: as §2

[5] = biological target: T3, human GLP-1 receptor (GLP-1R) (Homo sapiens, UniProt P43220); test: cAMP assay, human GLP-1R cells; type: cell-based; conditions: Table 9, bis-lipidated peptides
T3 construct: expressed in transfected cells; host or cells: HEK293 cells or CHO cells
Outline: as §2

[6] = biological target: T4, porcine pancreatic pepsin (Sus scrofa, UniProt P00791); test: Proteolytic resistance to pepsin (% remaining intact peptide, RP-HPLC AUC); type: in vitro ADME; conditions: t = 0; 37° C., pH 2.0
T4 construct: purchased Sigma P7012
Procedure: Pepsin: Lyophilized porcine pancreatic pepsin (Sigma: P7012) was reconstituted to afford a solution of 200 μg/mL (˜500 units/mL) in assay buffer (0.1 M HCl, pH 2.0) to give the enzyme stock solution. […] Ratio enzyme (units):peptide (moles) ˜1:6. […] Ratio enzyme (units):peptide (μmoles) ˜2:1.
Lyophilized porcine pancreatic pepsin (Sigma: P7012) was reconstituted to […] (˜500 units/mL) in assay buffer ([…], pH 2.0) to give the enzyme stock solution.

[7] = biological target: porcine pancreatic trypsin (Sus scrofa, UniProt P00761); test: Proteolytic resistance to trypsin (% remaining intact peptide, RP-HPLC AUC); type: in vitro ADME; conditions: t = 0; 37° C., pH 7.8
Procedure: Trypsin: Lyophilized porcine pancreatic trypsin (Sigma: T1426) was reconstituted to afford a solution of 100 μg/mL (˜300 units/mL) in assay buffer (50 mM Tris, 10 mM CaCl2), 150 mM NaCl, 1 mM HCl, adjusted to pH 7.8) to give the enzyme stock solution. […] Ratio enzyme (units):peptide (μmoles) ˜1:11. […] Ratio enzyme (units):peptide (μ moles) ˜1.2:1.
Lyophilized porcine pancreatic trypsin (Sigma: T7409) was reconstituted to 200 μg/mL (˜300 units/mL) in assay buffer (50 mM Tris, 10 mM CaCl2), 150 mM NaCl, 1 mM HCl, adjusted to pH 7.8) to give the enzyme stock solution. […] 15 μL aliquots (˜15 μg initial peptide) of the peptide-enzyme mixture were periodically withdrawn (t=0, 30 mins, 1 hr, 2 hr, 4 hr, 8 hr, 24 hr) and quenched immediately by addition to an equal volume (15 μL) of 5% TFA (v/v) in 1:1 water/acetonitrile to arrest proteolytic activity. 20 μL aliquots (˜10 μg initial peptide) were analysed by LC/MS and/or analytical RP-HPLC as follows: LC/MS method: Agilent Polaris C8-A column (4.6×100 mm, 3 micron) eluted with a linear binary gradient of 10-90% MeCN (0.1% TFA v/v) in water (0.1% TFA v/v) over 30 mins at 1.5 mL min^−1 at ambient temperature with detection by both UV absorption at 210 nm and ionization using a Waters 3100 mass detector (ESI^+ mode). Peptide fragments deriving from enzymatic hydrolysis were identified by molecular weight, allowing location of the site of cleavage. Analytical RP-HPLC method: Agilent Polaris C8-A column (4.6×100 mm, 3 micron) eluted with a linear binary gradient of 10-90% MeCN (0.1% TFA v/v) in water (0.1% TFA v/v) over either 10 or 15 mins at 1.5 mL min^−1 at 40° C. with detection by UV absorption at 210 nm. Manual integration (AUC) allowed estimation of remaining intact peptide over the time course of the experiment.
Lyophilized porcine pancreatic trypsin (Sigma: T7409) was reconstituted to 200 μg/mL (˜300 units/mL) in assay buffer (50 mM Tris, 10 mM CaCl2), 150 mM NaCl, 1 mM HCl, adjusted to pH 7.8) to give the enzyme stock solution. […] 25 μL aliquots (˜17 μg initial peptide) of the peptide-enzyme mixture were periodically withdrawn (t=0, 30 mins, 1 hr, 2 hr, 4 hr, 8 hr, 24 hr) and quenched immediately by addition to an equal volume (25 μL) of 5% TFA (v/v) in 1:1 water/acetonitrile to arrest proteolytic activity. 25 μL aliquots (˜8 μg initial peptide) were analysed by LC/MS and/or analytical RP-HPLC as follows: LC/MS method: Agilent Polaris C8-A column (4.6×100 mm, 3 micron) eluted with a linear binary gradient of 10-90% MeCN (0.1% TFA v/v) in water (0.1% TFA v/v) over 30 mins at 1.5 mL min^−1 at ambient temperature with detection by both UV absorption at 210 nm and ionization using a Waters 3100 mass detector (ESI^+ mode). Peptide fragments deriving from enzymatic hydrolysis were identified by molecular weight, allowing location of the site of cleavage. Analytical RP-HPLC method: Agilent Polaris C8-A column (4.6×100 mm, 3 micron) eluted with a linear binary gradient of 10-90% MeCN (0.1% TFA v/v) in water (0.1% TFA v/v) over either 10 or 15 mins at 1.5 mL min^−1 at 40° C. with detection by UV absorption at 210 nm. Manual integration (AUC) allowed estimation of remaining intact peptide over the time course of the experiment.

recombinant Neprilysin = biological target: T5, recombinant Neprilysin (Homo sapiens, UniProt P08473); test: Proteolytic resistance to neprilysin (% remaining peptide, RP-HPLC AUC); type: in vitro ADME; conditions: t = 0 (baseline); 37° C., pH 8.3; enzyme:peptide ~1:33 for non-lipidated, ~1:2.5 for lipidated peptides
T5 construct: purchased R&D Systems 1182-ZNC-010

[8] = Proteolytic resistance to α-chymotrypsin (% remaining intact peptide, RP-HPLC AUC); conditions: recombinant α-chymotrypsin in assay buffer, pH 7.8
Procedure: (§3) Ratio enzyme (units):peptide (μmoles) ˜1:33. […] Ratio enzyme (units):peptide (μmoles) ˜1:2.5.
(§4) 15 μL aliquots (˜15 μg initial peptide) of the peptide-enzyme mixture are periodically withdrawn (t=0, 30 mins, 1 hr, 2 hr, 4 hr, 8 hr, 24 hr) and quenched immediately by addition to an equal volume (15 μL) of 5% TFA (v/v) in 1:1 water/acetonitrile to arrest proteolytic activity. 20 μL aliquots (˜10 μg initial peptide) are analysed by LC/MS and/or analytical RP-HPLC as follows: LC/MS method: Agilent Polaris C8-A column (4.6×100 mm, 3 micron) elutes with a linear binary gradient of 10-90% MeCN (0.1% TFA v/v) in water (0.1% TFA v/v) over 30 mins at 1.5 mL min^−1 at ambient temperature with detection by both UV absorption at 210 nm and ionization using a Waters 3100 mass detector (ESI^+ mode). Peptide fragments deriving from enzymatic hydrolysis are identified by molecular weight, allowing location of the site of cleavage. Analytical RP-HPLC method: Agilent Polaris C8-A column (4.6×100 mm, 3 micron) elutes with a linear binary gradient of 10-90% MeCN (0.1% TFA v/v) in water (0.1% TFA v/v) over either 10 or 15 mins at 1.5 mL min^−1 at 40° C. with detection by UV absorption at 210 nm. Manual integration (AUC) allows estimation of remaining intact peptide over the time course of the experiment.
(§5) 25 μL aliquots (˜6 μg initial peptide) are analysed by LC/MS and/or analytical RP-HPLC as follows: LC/MS method: Agilent Polaris C8-A column (4.6×100 mm, 3 micron) elutes with a linear binary gradient of 10-90% MeCN (0.1% TFA v/v) in water (0.1% TFA v/v) over 30 mins at 1.5 mL min^−1 at ambient temperature with detection by both UV absorption at 210 nm and ionization using a Waters 3100 mass detector (ESI±mode). Peptide fragments deriving from enzymatic hydrolysis are identified by molecular weight, allowing location of the site of cleavage. Analytical RP-HPLC method: Agilent Polaris C8-A column (4.6×100 mm, 3 micron) elutes with a linear binary gradient of 10-90% MeCN (0.1% TFA v/v) in water (0.1% TFA v/v) over either 10 or 15 mins at 1.5 mL min^−1 at 40° C. with detection by UV absorption at 210 nm. Manual integration (AUC) allows estimation of remaining intact peptide over the time course of the experiment.

[9] = test system: recombinant α-chymotrypsin; test: as above; conditions: t = 0; 37° C., pH 7.8
Procedure: as §3, §4, §5

T2 sequence (P47871 26-477): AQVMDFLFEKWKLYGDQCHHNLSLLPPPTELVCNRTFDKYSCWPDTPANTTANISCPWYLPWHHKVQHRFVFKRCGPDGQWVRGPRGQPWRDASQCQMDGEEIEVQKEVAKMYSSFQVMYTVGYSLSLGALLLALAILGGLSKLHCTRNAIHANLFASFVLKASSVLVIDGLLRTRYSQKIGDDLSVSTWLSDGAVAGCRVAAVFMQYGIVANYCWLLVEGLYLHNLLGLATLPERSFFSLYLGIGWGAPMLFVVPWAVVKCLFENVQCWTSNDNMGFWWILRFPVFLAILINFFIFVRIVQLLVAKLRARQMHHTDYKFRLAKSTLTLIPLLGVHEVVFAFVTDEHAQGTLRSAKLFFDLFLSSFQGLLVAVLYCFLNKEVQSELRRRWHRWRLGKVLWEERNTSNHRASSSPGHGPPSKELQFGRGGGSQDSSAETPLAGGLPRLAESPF
T3 sequence (P43220 24-463): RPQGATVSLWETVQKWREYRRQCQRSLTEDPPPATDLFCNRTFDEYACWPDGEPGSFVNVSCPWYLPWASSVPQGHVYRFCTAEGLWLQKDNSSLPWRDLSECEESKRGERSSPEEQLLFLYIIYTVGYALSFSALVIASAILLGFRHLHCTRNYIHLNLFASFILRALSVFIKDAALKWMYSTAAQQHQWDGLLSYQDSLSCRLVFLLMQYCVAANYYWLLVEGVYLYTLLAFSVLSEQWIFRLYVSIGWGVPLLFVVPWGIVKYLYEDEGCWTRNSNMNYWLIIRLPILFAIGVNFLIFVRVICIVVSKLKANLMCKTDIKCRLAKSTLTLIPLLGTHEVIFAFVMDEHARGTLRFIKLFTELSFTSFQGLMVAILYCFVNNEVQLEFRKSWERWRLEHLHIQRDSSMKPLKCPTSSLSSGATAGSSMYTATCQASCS
Chain of porcine pancreatic trypsin (P00761 9-231): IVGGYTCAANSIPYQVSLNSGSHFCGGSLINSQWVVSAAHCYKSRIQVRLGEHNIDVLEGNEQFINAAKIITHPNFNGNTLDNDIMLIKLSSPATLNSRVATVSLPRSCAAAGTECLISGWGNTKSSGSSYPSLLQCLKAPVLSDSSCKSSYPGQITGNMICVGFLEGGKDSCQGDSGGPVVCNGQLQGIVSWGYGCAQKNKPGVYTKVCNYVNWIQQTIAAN
T5 sequence (P08473 whole entry): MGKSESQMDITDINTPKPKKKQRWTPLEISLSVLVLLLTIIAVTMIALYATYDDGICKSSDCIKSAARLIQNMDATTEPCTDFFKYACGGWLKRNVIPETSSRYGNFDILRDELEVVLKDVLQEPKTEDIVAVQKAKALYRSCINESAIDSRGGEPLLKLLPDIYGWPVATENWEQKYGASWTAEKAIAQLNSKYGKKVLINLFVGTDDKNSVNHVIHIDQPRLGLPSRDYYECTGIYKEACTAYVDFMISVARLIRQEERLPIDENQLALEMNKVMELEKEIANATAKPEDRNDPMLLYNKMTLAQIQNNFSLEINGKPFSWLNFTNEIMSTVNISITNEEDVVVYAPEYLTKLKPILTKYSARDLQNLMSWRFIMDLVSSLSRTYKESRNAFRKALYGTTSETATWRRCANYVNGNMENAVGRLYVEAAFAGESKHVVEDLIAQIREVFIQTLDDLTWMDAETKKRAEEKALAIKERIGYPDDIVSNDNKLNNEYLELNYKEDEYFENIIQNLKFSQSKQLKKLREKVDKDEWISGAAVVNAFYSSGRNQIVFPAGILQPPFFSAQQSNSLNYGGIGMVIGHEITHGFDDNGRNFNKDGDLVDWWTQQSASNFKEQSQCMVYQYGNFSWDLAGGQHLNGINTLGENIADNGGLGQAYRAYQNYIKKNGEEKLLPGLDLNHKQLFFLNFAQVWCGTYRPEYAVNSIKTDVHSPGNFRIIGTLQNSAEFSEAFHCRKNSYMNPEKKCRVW
T4 sequence (P00791 60-385): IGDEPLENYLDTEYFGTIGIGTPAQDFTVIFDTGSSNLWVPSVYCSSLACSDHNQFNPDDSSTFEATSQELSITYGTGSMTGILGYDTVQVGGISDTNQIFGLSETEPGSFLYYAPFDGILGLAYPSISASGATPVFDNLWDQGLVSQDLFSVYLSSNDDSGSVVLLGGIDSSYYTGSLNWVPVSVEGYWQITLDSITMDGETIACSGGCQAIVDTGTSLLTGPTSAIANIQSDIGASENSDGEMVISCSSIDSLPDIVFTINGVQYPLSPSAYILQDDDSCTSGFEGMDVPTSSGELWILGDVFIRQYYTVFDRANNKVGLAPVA

- remaining at 5 min, […] [1]: 86.2%
- remaining at 10 min, […] [1]: 72.9%
- remaining at 0.25 h, […] [1]: 60.3%
- remaining at 0.5 h, […] [1]: 36.3%
- remaining at 1 h, […] [1]: 16.2%
- remaining at 2 h, […] [1]: 2.1%
- Percentage remaining intact peptide (AUC by RP-HPLC) upon incubation with fasted-state simulated intestinal fluid (FASSIF/P) [2]: 100%
- EC50 ([3]; first replicate, read-out: Primary assay EC50 GIP-R (n1)): ≥ 21.5 nM
- EC50 ([3]; second replicate, read-out: Primary assay EC50 GIP-R (n2)): ≥ 21.5 nM
- EC50 ([4]; first replicate, read-out: Primary assay EC50 Gluc-R (n1)): ≥ 21.5 nM
- EC50 ([4]; second replicate, read-out: Primary assay EC50 Gluc-R (n2)): ≥ 21.5 nM
- EC50 ([5]; mean of n1 and n2, read-out: Primary assay EC50 Mean pM GLP-1R): 2 pM
- EC50 ([5]; replicate n2, read-out: Primary assay EC50 GLP-1R n2): 2.01 pM
SMILES: CCCCCCCCCCCC(=O)N[C@@H](CCC(=O)NCCOCCOCC(=O)NCCOCCOCC(=O)NCCCC[C@H](NC(=O)[C@H](C)NC(=O)[C@@H](NC(=O)[C@H](CCCC)NC(=O)[C@H](CCC(=O)O)NC(=O)[C@](C)(CCCCN)NC(=O)[C@H](C)NC(=O)[C@H](C)NC(=O)[C@H](CCC(=O)O)NC(=O)CNC(=O)[C@H](CCC(=O)O)NC(=O)[C@H](CC(C)C)NC(=O)[C@H](CCCCNC(=O)COCCOCCNC(=O)COCCOCCNC(=O)CC[C@H](NC(=O)CCCCCCCCCCC)C(=O)O)NC(=O)[C@H](CO)NC(=O)[C@](C)(CO)NC(=O)[C@@H](NC(=O)[C@H](CC(=O)O)NC(=O)[C@H](CO)NC(=O)[C@@H](NC(=O)[C@](C)(Cc1ccccc1)NC(=O)[C@H](CO)NC(=O)CNC(=O)[C@H](CCC(=O)O)NC(=O)C(C)(C)NC(=O)[C@@H](N)Cc1c[nH]cn1)[C@@H](C)O)C(C)C)[C@@H](C)CC)C(=O)N[C@H](C(=O)N[C@H](C(=O)N[C@@H](CCC(=O)O)C(=O)NCC(=O)NCC(N)=O)C(C)C)C(C)C)C(=O)O [compound 407] (H-H[Aib]EGS[αMeF]TSDV[αMeS]SK([AEEA-AEEA-γGlu-Lauroyl])LEGEAA[αMeK]E[Nle]IAK([AEEA-AEEA-γGlu-Lauroyl])VVEGG-NH2; N-terminus assumed)

- remaining at 5 min, […] [1]: 93.9%
- remaining at 10 min, […] [1]: 85.7%
- remaining at 0.25 h, […] [1]: 75.9%
- remaining at 0.5 h, […] [1]: 56.1%
- remaining at 1 h, […] [1]: 33.2%
- remaining at 2 h, […] [1]: 7.7%
- Percentage remaining intact peptide (AUC by RP-HPLC) upon incubation with fasted-state simulated intestinal fluid (FASSIF/P) [2]: 100%
SMILES: CCCCCCCCCCCC(=O)N[C@@H](CCC(=O)NCCOCCOCC(=O)NCCOCCOCC(=O)NCCCC[C@H](NC(=O)[C@H](C)NC(=O)[C@@H](NC(=O)[C@H](Cc1ccc(OC)cc1)NC(=O)[C@H](CCC(=O)O)NC(=O)[C@](C)(CCCCN)NC(=O)[C@H](C)NC(=O)[C@H](C)NC(=O)[C@H](CCC(=O)O)NC(=O)CNC(=O)[C@H](CCC(=O)O)NC(=O)[C@H](CC(C)C)NC(=O)[C@H](CCCCNC(=O)COCCOCCNC(=O)COCCOCCNC(=O)CC[C@H](NC(=O)CCCCCCCCCCC)C(=O)O)NC(=O)[C@H](CO)NC(=O)[C@](C)(CO)NC(=O)[C@@H](NC(=O)[C@H](CC(=O)O)NC(=O)[C@H](CO)NC(=O)[C@@H](NC(=O)[C@](C)(Cc1ccccc1)NC(=O)[C@H](CO)NC(=O)CNC(=O)[C@H](CCC(=O)O)NC(=O)C(C)(C)NC(=O)[C@@H](N)Cc1c[nH]cn1)[C@@H](C)O)C(C)C)[C@@H](C)CC)C(=O)N[C@H](C(=O)N[C@H](C(=O)N[C@@H](CCC(=O)O)C(=O)NCC(=O)NCC(N)=O)C(C)C)C(C)C)C(=O)O [compound 406] (H-H[Aib]EGS[αMeF]TSDV[αMeS]SK([AEEA-AEEA-γGlu-Lauroyl])LEGEAA[αMeK]EY(Me)IAK([AEEA-AEEA-γGlu-Lauroyl])VVEGG-NH2; N-terminus assumed)

- Percentage remaining intact peptide (AUC by RP-HPLC) upon incubation with pepsin [6]: 100%
- Percentage remaining intact peptide (AUC by RP-HPLC) upon incubation with trypsin [7]: 100.0%
- Percentage remaining peptide (AUC at specified time-point by RP-HPLC) upon incubation with neprilysin, t = 0 (recombinant Neprilysin): 100%
- remaining at 0.5 h [8]: 97.8%
- remaining at 1 h [8]: 94.6%
- remaining at 2 h [8]: 90.9%
- remaining at 4 h [8]: 88.8%
- remaining at 8 h [8]: 89.4%
- remaining at 24 h [8]: 86.4%
- Percentage remaining intact peptide (AUC by RP-HPLC) upon incubation with α-chymotrypsin [9]: 100%
SMILES: CC[C@H](C)[C@H](NC(=O)[C@H](Cc1ccccc1)NC(=O)[C@H](CCC(=O)O)NC(=O)[C@H](CCCCNC(=O)COCCOCCNC(=O)COCCOCCNC(=O)CC[C@H](NC(=O)CCCCCCCCCCCCCCCCC(=O)O)C(=O)O)NC(=O)[C@H](C)NC(=O)[C@H](C)NC(=O)[C@H](CCC(=O)O)NC(=O)CNC(=O)[C@H](CCC(=O)O)NC(=O)[C@H](CC(C)C)NC(=O)[C@](C)(Cc1ccccc1)NC(=O)[C@H](CO)NC(=O)[C@](C)(CO)NC(=O)[C@@H](NC(=O)[C@H](CC(=O)O)NC(=O)[C@H](CO)NC(=O)[C@@H](NC(=O)[C@](C)(Cc1ccccc1)NC(=O)[C@H](CO)NC(=O)CNC(=O)[C@H](CCC(=O)O)NC(=O)C(C)(C)NC(=O)[C@@H](N)Cc1c[nH]cn1)[C@@H](C)O)C(C)C)C(=O)N[C@@H](C)C(=O)N[C@@](C)(Cc1ccccc1)C(=O)N[C@H](C(=O)N[C@H](C(=O)N[C@@](C)(CCCCN)C(=O)NCC(=O)NCC(N)=O)C(C)C)C(C)C [compound 48]
